In patent US20210032257A1, “(E)-1-(4-(DIMETHYLAMINO)BUT-2-ENOYL)PYRROLIDIN-3-YL 4-((3-ISOPROPYL-5-METHYLPYRAZOLO[1,5-A]PYRIMIDIN-7-YL)AMINO)PIPERIDINE-1-CARBOXYLATE FOR INHIBITING CDK7” (Eli Lilly and Company, priority 2017, published 2021):

Experiments:
Assay in all cases: Biomarker study proliferation (CellTiter-Glo)
Assay type in all cases: cell-based
DMS53 = system: DMS53
Protocol: (§1) Cancer cell lines are profiled to evaluate the anti-proliferative activity of a test compound in-vitro. Mutation, copy number and gene expression information of ARID1A, KMT2C, KMT2D and/or RB1 genes across cancer cell lines is obtained from COSMIC database (cancer.sanger.ac.uk) and cBioportal (http://www.cbioportal.org/). Cells are cultured in growth medium and plated into a 96-well plate in 100 μL/well growth medium at 5000 cells/well then incubated at 37° C., 5% CO2 overnight. Cells are cultured using supplier recommended media and conditions well known in the art, for example with RPMI 1640 with or without HEPES & L-Glutamine (Thermo SH30255.01) and 1 mM Sodium Pyruvate, and 10% FBS(Gibco cat #10082). The 1000× intermediate dilution plate is prepared by making a 10 mM working solution of a test sample in DMSO and performing 1:3 dilutions in DMSO for 10 points. The 10× dosing plate is prepared by adding 2 μL from the 1000× intermediate dilution plate to 198 μL of OPTIMEM®+10% FBS and mixing well. The cell plate is then treated by adding 11 μL from the 10× dosing plate into the 100 μL/well cell plate for a 1× final concentration. Staurosporine is used as a maximum growth inhibition control at a final concentration of 5 μM. The cell plate is incubated for 7 days at 37° C., 5% CO2. Seven days after treatment, Cell Titer-Glo® (Promega cat #G7571) assay buffer and substrate are removed from −20° C. and allowed to equilibrate to RT. Assay buffer is added to the substrate and swirled gently to mix. The CELL TITER-GLO® reagent (100 μL/well) is added to the cell plate and incubated at RT for 15 minutes. After 15 minutes, luminescence is read using a plate reader. Data is analyzed in Excel and graphed in GraphPad Prism. Statistical analysis and p value is calculated using Mann-Whitney nonparameteric t tests using GraphPad Prism.
(§2) Anti-proliferative effects of a test compound are categorized as insensitive (IC50≥1 μM), cytostatic (IC50<1 μM and % inhibition <70%) or cytotoxic (IC50<1 μM and % inhibition ≥70%).

HOS = system: HOS
Protocol: as §1, §2

HUH7 = system: HUH7
Protocol: as §1, §2

IMR32 = system: IMR32
Protocol: as §1, §2

KYSE520 = system: KYSE520
Protocol: as §1, §2

Karpas1106 = system: Karpas1106
Protocol: as §1, §2

MHCC97H = system: MHCC97H
Protocol: as §1, §2

MOLT4 = system: MOLT4
Protocol: as §1, §2

NCIH1155 = system: NCIH1155
Protocol: as §1, §2

NCIH2030 = system: NCIH2030
Protocol: as §1, §2

NCIH2122 = system: NCIH2122
Protocol: as §1, §2

SKUT1 = system: SKUT1
Protocol: as §1, §2

SNU478 = system: SNU478
Protocol: as §1, §2

SW780 = system: SW780
Protocol: as §1, §2

T84 = system: T84
Protocol: as §1, §2

T98G = system: T98G
Protocol: as §1, §2

TCCSUP = system: TCCSUP
Protocol: as §1, §2

TYKNU = system: TYKNU
Protocol: as §1, §2

ZR751 = system: ZR751
Protocol: as §1, §2

[1] = Homo sapiens, 168 h, read-out: Anti-proliferation effect IC50
[2] = 168 h, read-out: Anti-proliferation effect IC50

Compound: Cc1cc(NC2CCN(C(=O)O[C@H]3CCN(C(=O)/C=C/CN(C)C)C3)CC2)n2ncc(C(C)C)c2n1 [Example 1, [(3S)-1-[(E)-4-(dimethylamino)but-2-enoyl]pyrrolidin-3-yl] 4-[(3-isopropyl-5-methyl-pyrazolo[1,5-a]pyrimidin-7-yl)amino]piperidine-1-carboxylate]
- Anti-proliferation effect % Inh. (DMS53; DMS53, LUNG, 7 days): 66%
- Anti-proliferation effect Outcome (DMS53; DMS53, LUNG, 7 days): Cytostatic (cytostatic (IC50<1 μM and % inhibition <70%))
- IC50 (DMS53; Homo sapiens, DMS-53, 168 h, read-out: Anti-proliferation effect IC50): 118 nM
- Anti-proliferation effect % Inh. (HOS; BONE, 7 days): 72%
- Anti-proliferation effect Outcome (HOS; BONE, 7 days): Cytotoxic (cytotoxic (IC50<1 μM and % inhibition ≥70%))
- IC50 (HOS; [1]): 90 nM
- Anti-proliferation effect % Inh. (HUH7; HUH7, LIVER, 7 days): 64%
- Anti-proliferation effect Outcome (HUH7; HUH7, LIVER, 7 days): Cytostatic (cytostatic (IC50<1 μM and % inhibition <70%))
- IC50 (HUH7; Homo sapiens, Huh-7, 168 h, read-out: Anti-proliferation effect IC50): 175 nM
- IC50 (IMR32; Homo sapiens, IMR-32, 168 h, read-out: Anti-proliferation effect IC50): 2 nM
- Anti-proliferation effect % Inh. (IMR32; IMR32, CNS, 7 days): 100%
- Anti-proliferation effect Outcome (IMR32; IMR32, CNS, 7 days): Cytotoxic (cytotoxic (IC50<1 μM and % inhibition ≥70%))
- IC50 (KYSE520; Homo sapiens, KYSE-520, 168 h, read-out: Anti-proliferation effect IC50): > 10 µM
- Anti-proliferation effect % Inh. (KYSE520; KYSE520, OESOPHAGUS, 7 days): 50%
- Anti-proliferation effect Outcome (KYSE520; KYSE520, OESOPHAGUS, 7 days): Insensitive (insensitive (IC50≥1 μM))
- IC50 (Karpas1106; [2]): 26 nM
- Anti-proliferation effect % Inh. (Karpas1106; Karpas1106, BLOOD, 7 days): 98%
- Anti-proliferation effect Outcome (Karpas1106; Karpas1106, BLOOD, 7 days): Cytotoxic (cytotoxic (IC50<1 μM and % inhibition ≥70%))
- IC50 (MHCC97H; [1]): 243 nM
- Anti-proliferation effect % Inh. (MHCC97H; LIVER, 7 days): 59%
- Anti-proliferation effect Outcome (MHCC97H; LIVER, 7 days): Cytostatic (cytostatic (IC50<1 μM and % inhibition <70%))
- IC50 (MOLT4; Homo sapiens, MOLT-4, 168 h, read-out: Anti-proliferation effect IC50): 40 nM
- Anti-proliferation effect % Inh. (MOLT4; MOLT4, BLOOD, 7 days): 99%
- Anti-proliferation effect Outcome (MOLT4; MOLT4, BLOOD, 7 days): Cytotoxic (cytotoxic (IC50<1 μM and % inhibition ≥70%))
- IC50 (NCIH1155; Homo sapiens, NCI-H1155, 168 h, read-out: Anti-proliferation effect IC50): 43 nM
- Anti-proliferation effect % Inh. (NCIH1155; NCIH1155, LUNG, 7 days): 51%
- Anti-proliferation effect Outcome (NCIH1155; NCIH1155, LUNG, 7 days): Cytostatic (cytostatic (IC50<1 μM and % inhibition <70%))
- IC50 (NCIH2030; Homo sapiens, NCI-H2030, 168 h, read-out: Anti-proliferation effect IC50): 5.37 µM
- Anti-proliferation effect % Inh. (NCIH2030; NCIH2030, LUNG, 7 days): 9%
- Anti-proliferation effect Outcome (NCIH2030; NCIH2030, LUNG, 7 days): Insensitive (insensitive (IC50≥1 μM))
- IC50 (NCIH2122; Homo sapiens, NCI-H2122, 168 h, read-out: Anti-proliferation effect IC50): 78 nM
- Anti-proliferation effect % Inh. (NCIH2122; NCIH2122, LUNG, 7 days): 85%
- Anti-proliferation effect Outcome (NCIH2122; NCIH2122, LUNG, 7 days): Cytotoxic (cytotoxic (IC50<1 μM and % inhibition ≥70%))
- IC50 (SKUT1; Homo sapiens, SK-UT-1, 168 h, read-out: Anti-proliferation effect IC50): 41 nM
- Anti-proliferation effect % Inh. (SKUT1; SKUT1, SOFT TISSUE, 7 days): 89%
- Anti-proliferation effect Outcome (SKUT1; SKUT1, SOFT TISSUE, 7 days): Cytotoxic (cytotoxic (IC50<1 μM and % inhibition ≥70%))
- IC50 (SNU478; [2]): 32 nM
- Anti-proliferation effect % Inh. (SNU478; SNU478, BILIARY, 7 days): 92%
- Anti-proliferation effect Outcome (SNU478; SNU478, BILIARY, 7 days): Cytotoxic (cytotoxic (IC50<1 μM and % inhibition ≥70%))
- IC50 (SW780; Homo sapiens, SW780, 168 h, read-out: Anti-proliferation effect IC50): 74 nM
- Anti-proliferation effect % Inh. (SW780; SW780, URINARY, 7 days): 68%
- Anti-proliferation effect Outcome (SW780; SW780, URINARY, 7 days): Cytostatic (cytostatic (IC50<1 μM and % inhibition <70%))
- IC50 (T84; Homo sapiens, T84, 168 h, read-out: Anti-proliferation effect IC50): 308 nM
- Anti-proliferation effect % Inh. (T84; T84, INTESTINE, 7 days): 61%
- Anti-proliferation effect Outcome (T84; T84, INTESTINE, 7 days): Cytostatic (cytostatic (IC50<1 μM and % inhibition <70%))
- Anti-proliferation effect % Inh. (T98G; CNS, 7 days): 44%
- Anti-proliferation effect Outcome (T98G; CNS, 7 days): Insensitive (insensitive (IC50≥1 μM))
- IC50 (T98G; [1]): 1370 nM
- IC50 (TCCSUP; Homo sapiens, TCC-SUP, 168 h, read-out: Anti-proliferation effect IC50): 40 nM
- Anti-proliferation effect % Inh. (TCCSUP; TCCSUP, URINARY, 7 days): 61%
- Anti-proliferation effect Outcome (TCCSUP; TCCSUP, URINARY, 7 days): Cytostatic (cytostatic (IC50<1 μM and % inhibition <70%))
- IC50 (TYKNU; [2]): 72 nM
- Anti-proliferation effect % Inh. (TYKNU; TYKNU, OVARY, 7 days): 83%
- Anti-proliferation effect Outcome (TYKNU; TYKNU, OVARY, 7 days): Cytotoxic (cytotoxic (IC50<1 μM and % inhibition ≥70%))
- IC50 (ZR751; Homo sapiens, ZR-75-1, 168 h, read-out: Anti-proliferation effect IC50): 43 nM
- Anti-proliferation effect % Inh. (ZR751; ZR751, BREAST, 7 days): 69%
- Anti-proliferation effect Outcome (ZR751; ZR751, BREAST, 7 days): Cytostatic (cytostatic (IC50<1 μM and % inhibition <70%))
